Publication PMC7763603, “Structural Basis for Design of New Purine-Based Inhibitors Targeting the Hydrophobic Binding Pocket of Hsp90” (International Journal of Molecular Sciences, 2020)
Read-outs that look alike come from different tables or passages of the source. Blank lines part the entries; values can stand above or below the compound they belong to.

Assays:
[1] = biological target: T1, human recombinant N-terminal Hsp90α (Homo sapiens, UniProt P07900); test: Fluorescence polarization competition assay with FITC-GM probe (Reaction Biology Corporation); type: binding; conditions: for IC50: 10-dose, threefold serial dilution starting at 100 μM, mean of two experiments; for inhibition at 10 µM: read-out: Hsp90α % Inhibition @10 μM
T1 construct: human recombinant N-terminal Hsp90α protein; purchased Reaction Biology Corporation (RBC, Malvern, PA, USA; assay service)

HCT116 cells = test: MTT antiproliferative assay, HCT116; type: cell-based, human; conditions: for inhibition at 10 µM: read-out: HCT116 % Inh. at 10 μM; for GI50: mean ± SEM of two experiments
Description: The growth inhibitory effects of the test compounds, at 10 µM dose, were determined after 72 h incubation using the 3-(4,5-dimethylthiazol-2-yl)-2,5-diphenyl tetrazolium bromide (MTT) assay.
(§1) Cytotoxic activity of certain Hsp90 inhibitors against human cancer cell lines (MCF-7, SK-BR-3, and HCT116) was investigated using the MTT assay following the reported procedure. Cells were seeded into 96-well plates at a density of 3000 cells per well (MCF-7, HCT116, SK-BR-3 cells per each well). The compounds were added into cells and incubated for 72 h. Then, absorbance at 450 nm was measured using a Microplate Absorbance Reader (Bio-Rad, Hercules, CA, USA).

SK-BR-3 cells = test: MTT antiproliferative assay, SK-BR-3; type: cell-based, human; conditions: for inhibition at 10 µM: read-out: SK-BR-3 % Inh. at 10 μM; for GI50: mean ± SEM of two experiments
Description: […] […] Such modest cellular outcomes of those purine derivatives may be attributed to their lower lipophilic characters, which in turn restrict their cellular permeability into cancer cells. […] The 2-phenyloxazole-substituted purine 8 exerted reasonable antiproliferative activity, with GI values of 33.27% and 37.46% against MCF-7 and SK-BR-3 cells, respectively.
as §1

[2] = biological target: T2, mHsp90ND (N-terminal domain of mouse Hsp90α) (Mus musculus, UniProt P07901); test: Isothermal titration calorimetry (ITC); type: binding
T2 construct: Hsp90α (residues 9–225 Swiss Prot entry: P07901); His6 (N); made in house; host or cells: Escherichia coli BL21 (DE3) codon plus RIL
Description: The PCR product was cloned into plasmid pET28a, which encodes a purification tag consisting of the amino acids His6 at the N-terminal of the protein. mHsp90ND was expressed in Escherichia coli (E. coli) BL21 (DE3) codon plus RIL (Stratagene) cell. The cells were lysed by sonication in 50 mM Tris-HCl (pH 7.4), 100 mM NaCl, 2 mM 2-mercaptoethanol, and 0.2 mM phenylmethylsulfonyl fluoride (PMSF). After centrifugation, mHsp90ND in the supernatant was purified by Ni^2+-chelated Hi-trap chelating column, and HiLoad 26/60 200pg column (GE healthcare, Chicago, IL, USA). After the final step, mHsp90ND was stored in 20 mM Tris-HCl (pH 7.4), 100 mM NaCl, and 1 mM dithiothreitol (DTT).
Stock solutions of those compounds were prepared in dimethyl sulfoxide (DMSO) at 100 mM concentration and stored at −20 °C. The ITC buffer contained 20 mM Tris (pH 8.0), 100 mM NaCl, and up to 2% DMSO. […] The experimental raw data were corrected for dilution by subtracting the values for buffer alone and then fit by a one-site binding model. Titration data were fit using a nonlinear least squares curve-fitting algorithm with three floating variables: stoichiometry, binding constant (KD), and change of enthalpy of interaction.

MCF-7 cells = test: MTT antiproliferative assay, MCF-7; type: cell-based, human; conditions: for inhibition at 10 µM / GI50: Homo sapiens, MCF7, 72 h; for inhibition at 10 µM: read-out: MCF-7 % Inh. at 10 μM; for GI50: mean ± SEM of two experiments
Description: The growth inhibitory effects of the test compounds, at 10 µM dose, were determined after 72 h incubation using the 3-(4,5-dimethylthiazol-2-yl)-2,5-diphenyl tetrazolium bromide (MTT) assay. […] Such modest cellular outcomes of those purine derivatives may be attributed to their lower lipophilic characters, which in turn restrict their cellular permeability into cancer cells. […] The 2-phenyloxazole-substituted purine 8 exerted reasonable antiproliferative activity, with GI values of 33.27% and 37.46% against MCF-7 and SK-BR-3 cells, respectively.
as §1

[3] = design: method as in PMID 22938030; conditions: in mice; cited from earlier work
Hsp90α = Hsp90α (Homo sapiens, UniProt P07900); test: Colorimetric determination of ATPase activity of Hsp90; type: biochemical; conditions: 50 µM compound, 30 min, compared to positive control with Hsp90α, duplicate
Description: The reaction was terminated by adding 200 μL reagent buffer. Followed by incubation with reagent buffer for 30 min at the room temperature, the absorbance was measured at 620 nm using a Biotek-Synergy Neo-Plate Reader (BioTek Instruments, Winooski, VT, USA).

[4] = test system: HSP90 client proteins (EGFR, Akt), Hsp70 in MCF7 cells; test: Western blot of HSP90 client proteins and Hsp70 in MCF7 cells; type: cell-based, human; conditions: 24 h
Description: Furthermore, the effect of compound 14 on cellular biomarkers of the HSP90 inhibition was evaluated to obtain insights about the molecular mechanisms triggering its anticancer activity. MCF7 cells were incubated with various doses of compound 14 (0.5, 1, 5, 10, and 20 μM) for 24 h, and the expression levels of HSP90 client proteins (EGFR, Akt, and Cdk4), Hsp90, HSP70, and glyceraldehyde-3-phosphate dehydrogenase (GAPDH) were determined by Western blot analysis (Figure 6).
MCF7 cells were seeded in 60 mm culture dishes, incubated overnight, and treated with the indicated concentrations of compound 14 or geldanamycin for 24 h. Cells were then harvested and lysed on ice by radioimmunoprecipitation assay (RIPA) buffer (23 mM Tris-HCl (pH 7.6), 130 mM NaCl, 1% nonidet P-40 (NP-40), 1% sodium deoxycholate, 0.1% SDS) supplemented with protease and phosphatase inhibitor cocktails, and […] of lysate perlane was separated by SDS-PAGE, followed by transferring to a polyvinylidene fluoride (PVDF) membrane (Bio-Rad, Hercules, CA, USA). The membrane was blocked with 5% skim milk in TBS-T, and then incubated with the corresponding primary antibody (EGFR, Akt, Hsp90, Hsp70, or GAPDH). After binding of an appropriate secondary antibody (Santa Cruz, CA, USA) coupled to horseradish peroxidase, proteins were visualized by enhanced chemiluminescence (ECL) according to the instructions of the manufacturer (GE healthcare, Chicago, IL, USA).

[5] = single dose 10 μM, duplicate, FITC-GM probe
[6] = Homo sapiens, HCT-116, 72 h, 10 μM
[7] = Homo sapiens, SK-BR-3, 72 h, 10 μM
[8] = ITC, 25 °C, one-site binding model
[9] = ITC, 25 °C, one-site binding model, read-out: KD

Compound: Cc1ccc(-c2[nH]nnc2Cn2cnc3c(Cl)nc(N)nc32)cc1 [Compound 12, 6-Chloro-9-((5-(p-tolyl)-1H-1,2,3-triazol-4-yl)methyl)-9H-purin-2-amine]
Hsp90α % Inhibition @10 μM [1, 5]: fluorescence background that interfered with the assay

Compound: C=CCNC1=C2C[C@@H](C)C[C@H](OC)[C@H](O)[C@@H](C)/C=C(\C)[C@H](OC(N)=O)[C@@H](OC)/C=C\C=C(/C)C(=O)NC(=CC1=O)C2=O [Compound 17-AAG, Allyl-aminogeldanamycin, reference compound]
inhibition at 10 µM (HCT116 cells; [6]): 88.9%
GI50 (HCT116 cells; Homo sapiens, HCT-116, 72 h): 205 ± 9 nM
inhibition at 10 µM (SK-BR-3 cells; [7]): 74.4%
GI50 (SK-BR-3 cells; Homo sapiens, SK-BR-3, 72 h): 140 ± 12 nM
Kd [2]: 2900 nM
N (binding stoichiometry) [2]: 0.98
∆H [2]: -8.6 ± 0.4 kcal/mol
∆S [2]: −3.66 cal/mol/deg
inhibition at 10 µM [1]: 100%
inhibition at 10 µM (MCF-7 cells; 10 μM): 79.7%
GI50 (MCF-7 cells): 498 ± 60 nM

Compound: COc1c(C)cnc(Cn2cc(C#CCC(C)(C)O)c3c(Cl)nc(N)nc32)c1C [EC144]
efficacy relative to BIIB021 [3]: approximately 20 fold

Compound: Cc1ccc(C#CCn2cnc3c(Cl)nc(N)nc32)cc1 [Compound 10, 6-Chloro-9-(3-(p-tolyl)prop-2-yn-1-yl)-9H-purin-2-amine]
inhibition at 10 µM [1, 5]: 22.2%

Compound: COc1c(C)cnc(Cn2cnc3c(Cl)nc(N)nc32)c1C [BIIB021, reference compound]
inhibition at 10 µM (HCT116 cells; [6]): 86.2%
inhibition at 10 µM (SK-BR-3 cells; [7]): 71.9%
GI50 (SK-BR-3 cells; Homo sapiens, SK-BR-3, 72 h): 347 ± 23 nM
inhibition at 10 µM (MCF-7 cells; 10 μM): 84.8%
GI50 (MCF-7 cells): 392 ± 30 nM

Compound: CC(C)(C)C1=NOC(Cn2cnc3c(Cl)nc(N)nc32)C1 (centres unmarked) [Compound 4b, 9-((3-(tert-Butyl)-4,5-dihydroisoxazol-5-yl)methyl)-6-chloro-9H-purin-2-amine]
melting point: 198.3 to 200.8 °C
inhibition at 10 µM (HCT116 cells; [6]): < 30%
∆H ([2]; ITC, 25 °C): -19.8 ± 3.29 kcal/mol
∆S ([2]; ITC, 25 °C): −44.5 cal/mol/deg
N (binding stoichiometry) [2, 8]: 1.17
Kd [2, 9]: 15600 nM
inhibition at 10 µM [1, 5]: 35.4%

Compound: CCOC(=O)c1cc(Cn2cnc3c(Cl)nc(N)nc32)no1 [Compound 7, Ethyl 3-((2-amino-6-chloro-9H-purin-9-yl)methyl)isoxazole-5-carboxylate]
inhibition at 10 µM [1, 5]: 14.8%

Compound: Cc1ccc(Cn2cnc3c(Cl)nc(N)nc32)cc1 [Compound 14, 6-Chloro-9-(4-methylbenzyl)-9H-purin-2-amine]
inhibition at 10 µM (HCT116 cells; [6]): 46.5%
inhibition at 10 µM (SK-BR-3 cells; [7]): 60.9%
GI50 (SK-BR-3 cells; Homo sapiens, SK-BR-3, 72 h): 15200 ± 2080 nM
∆H ([2]; ITC, 25 °C): -17.8 ± 0.2 kcal/mol
∆S ([2]; ITC, 25 °C): −30.5 cal/mol/deg
N (binding stoichiometry) [2, 8]: 0.89
Kd [2, 9]: 410 nM
activity at 50 µM (Hsp90α): 83.6%
IC50 ([1]; FITC-GM probe): 1000 nM
inhibition at 10 µM [1, 5]: 95.4%
EGFR expression level ([4]; 10 μM): remarkably decreased
Akt expression level ([4]; 20 μM): remarkably decreased
Hsp70 expression level ([4]; 0.5-20 μM, dose-dependent): upregulated
inhibition at 10 µM (MCF-7 cells; 10 μM): 55.1%
GI50 (MCF-7 cells): 16200 ± 710 nM

Compound: Cc1ccc(-c2[nH]nnc2Cn2cnc3nc(N)nc(Cl)c32)cc1 [Compound 13, 6-Chloro-7-((5-(p-tolyl)-1H-1,2,3-triazol-4-yl)methyl)-7H-purin-2-amine]
Hsp90α % Inhibition @10 μM [1, 5]: fluorescence background that interfered with the assay

Compound: Nc1nc(Cl)c2c(ncn2Cc2cnc(-c3ccccc3)o2)n1 [Compound 9, 6-Chloro-7-((2-phenyloxazol-5-yl)methyl)-7H-purin-2-amine]
Hsp90α % Inhibition @10 μM [1, 5]: fluorescence background that interfered with the assay

Compound: 6-Chloro-9-((2-phenyloxazol-5-yl)methyl)-7H-purin-2-amine [Compound 8]
HCT116 % Inh. at 10 μM (HCT116 cells; 10 μM, 72 h): 19.19%
GI50 (HCT116 cells; 72 h): 23400 ± 2940 nM
SK-BR-3 % Inh. at 10 μM (SK-BR-3 cells; 10 μM, 72 h): 37.46%
GI50 (SK-BR-3 cells; 72 h): 22500 ± 700 nM
Hsp90α % Inhibition @10 μM [1, 5]: 48.7%
MCF-7 % Inh. at 10 μM (MCF-7 cells; 10 μM, 72 h): 33.27%

Compound: Cc1ccc(C#CCn2cnc3nc(N)nc(Cl)c32)cc1 [Compound 11, 6-Chloro-7-(3-(p-tolyl)prop-2-yn-1-yl)-7H-purin-2-amine]
Hsp90α % Inhibition @10 μM [1, 5]: fluorescence background that interfered with the assay

Further lines, with some results ahead:

∆H ([2]; ITC, 25 °C): -15.8 ± 0.5 kcal/mol
∆S ([2]; ITC, 25 °C): −24.8 cal/mol/deg
N (binding stoichiometry) [2, 8]: 1.00
Kd [2, 9]: 680 nM
IC50 ([1]; FITC-GM probe): 203 nM
inhibition at 10 µM [1, 5]: 77.3%
Compound: CC(C)c1cc(Cn2cnc3c(Cl)nc(N)nc32)on1 [Compound 6c, 6-Chloro-9-((3-isopropylisoxazol-5-yl)methyl)-9H-purin-2-amine]
inhibition at 10 µM (HCT116 cells; [6]): -0.6%
inhibition at 10 µM (SK-BR-3 cells; [7]): 33.2%
inhibition at 10 µM (MCF-7 cells; 10 μM): 11.9%

GI50 (SK-BR-3 cells; Homo sapiens, SK-BR-3, 72 h): 26000 ± 1360 nM
∆H ([2]; ITC, 25 °C): -14.5 ± 0.4 kcal/mol
∆S ([2]; ITC, 25 °C): −19.4 cal/mol/deg
N (binding stoichiometry) [2, 8]: 0.97
Kd [2, 9]: 440 nM
potency relative to isoxazoline congener 4b (from % inhibition) ([1]; 10 μM, FITC-GM probe): 2.7 fold
IC50 ([1]; FITC-GM probe): 1760 nM
inhibition at 10 µM [1, 5]: 95.8%
Compound: CC(C)(C)c1cc(Cn2cnc3c(Cl)nc(N)nc32)on1 [Compound 6b, 9-((3-(tert-Butyl)isoxazol-5-yl)methyl)-6-chloro-9H-purin-2-amine]
inhibition at 10 µM (HCT116 cells; [6]): 26%
inhibition at 10 µM (SK-BR-3 cells; [7]): 45.8%
inhibition at 10 µM (MCF-7 cells; 10 μM): 15.7%
